Test results reported in patent US8802713B2, “3-alkoxy-1-phenylpyrazole derivatives and pesticides” (Kumiai Chemical Industry Co., Ltd., priority 2007, dated 2014).
Read-outs that look alike come from different tables or passages of the source.

Legend:
[1] = tested on: cotton aphid; assay: Insecticidal test on cotton aphid (seedling dip); assay type: in vivo; conditions: Aphis gossypii, in Cucumis sativus, 72 h
Experimental: A wettable powder prepared in accordance with Formulation Example 2 was diluted with water to a concentration of an active ingredient of 500 ppm. Cucumber seedlings which had been inoculated with larvae of cotton aphid were dipped in this solution and dried in air. The treated cucumber seedlings were placed in a thermostatic chamber at 25° C. for 3 days, and the live insects were counted for calculation of the mortality by Equation 2. The test was carried out by one series system.

[2] = tested on: diamondback moth; assay: Insecticidal test on diamondback moth; assay type: in vivo; conditions: Plutella xylostella, 144 h
Experimental: A wettable powder prepared in accordance with Formulation Example 2 was diluted with water to a concentration of an active ingredient of 500 ppm. Cabbage leaves were dipped in this solution and dried in air and then put in a plastic cup having a capacity of 60 mL. 10 second-instar larvae of diamondback moth were released in the cup and the cup was lidded. Then, the cup was placed in a thermostatic chamber at 25° C. for 6 days, and dead moths were counted for calculation of the mortality by Equation 2. The test was carried out by one series system.

[3] = tested on: brown rice planthopper; assay: Insecticidal test on brown rice planthopper; assay type: in vivo; conditions: 144 h
Experimental: A wettable powder prepared in accordance with Formulation Example 2 was diluted with water to a concentration of an active ingredient of 500 ppm. Rice sprouts were dipped in this solution and put in a plastic cup having a capacity of 60 mL. Ten third-instar larvae of brown rice planthopper were released in the cup, the cup was lidded and placed in a thermostatic chamber at 25° C. for 6 days, and the number of dead larvae were counted for calculation of the mortality by Equation 2. The test was carried out by one series system.

[4] = tested on: two-spotted spider mites; assay: Miticidal test on two-spotted spider mites (seedling dip); assay type: in vivo, Tetranvchus urticae; conditions: Glycine max, 312 h, read-out: protective value
Experimental: A wettable powder prepared in accordance with Formulation Example 2 was diluted with water to a concentration of an active ingredient of 500 ppm. Soybean seedlings which had been inoculated with imago two-spotted spider mites were dipped in the solution and dried in air. The treated soybean seedlings were placed in a thermostatic chamber at 25° C. for 13 days, and the number of live mites were assessed for calculation of the protective value by Equation 1. The test was carried out by one series system.

[5] = tested on: cotton bollworm; assay: Insecticidal test on cotton bollworm; assay type: in vivo; conditions: Helicoverpa armigera, 144 h
Experimental: A wettable powder prepared in accordance with Formulation Example 2 was diluted with water to a concentration of an active ingredient of 500 ppm. Cabbage leaves were dipped in this solution and dried in air and then put in a plastic cup having a capacity of 60 mL. Five hatched larvae of cotton bollworm were released in the cup, and the cup was lidded and placed in a thermostatic chamber at 25° C. for 6 days, and the number of dead larvae were assessed for calculation of the mortality by Equation 2. The test was carried out by two series system.

[6] = 500 ppm active ingredient, soybean seedlings with imago mites dipped, 25° C., 13 days
[7] = 500 ppm active ingredient, cabbage leaves dipped, second-instar larvae, 25° C., 6 days, read-out: mortality
[8] = 500 ppm active ingredient, cabbage leaves dipped, hatched larvae, 25° C., 6 days, read-out: mortality

Cc1cc(F)c(-n2nc(OCC(F)(F)C(F)(F)F)cc2NC(=O)C(F)(F)F)cc1SCC(F)(F)F [1-29, 1-{2-fluoro-4-methyl-5-(2,2,2-trifluoroethylthio)phenyl}-3-(2,2,3,3,3-pentafluoropropoxy)-5-trifluoroacetylaminopyrazole]
≥ 90%: mortality at 500 ppm [1] | mortality at 500 ppm ([2]; in Brassica oleracea) | mortality at 500 ppm [3] | pest or weed control at 500 ppm [4, 6]

Cc1cc(F)c(-n2nc(OCC(F)(F)C(F)(F)F)cc2C)cc1SCC(F)(F)F [1-91, 1-{2-fluoro-4-methyl-5-(2,2,2-trifluoroethylthio)phenyl}-5-methyl-3-(2,2,3,3,3-pentafluoropropoxy)pyrazole]
≥ 90%: mortality at 500 ppm [1] | mortality at 500 ppm ([2]; in Brassica oleracea) | mortality at 500 ppm [3] | pest or weed control at 500 ppm [4, 6]

Cc1cc(F)c(-n2nc(OCC(F)(F)C(F)(F)F)cc2C#N)cc1SCC(F)(F)F [1-133, 5-cyano-1-{2-fluoro-4-methyl-5-(2,2,2-trifluoroethylthio)phenyl}-3-(2,2,3,3,3-pentafluoropropoxy)pyrazole]
≥ 90%: mortality at 500 ppm [1] | mortality at 500 ppm ([2]; in Brassica oleracea) | mortality at 500 ppm [3] | pest or weed control at 500 ppm [4, 6]

CNc1cc(OC(F)(F)C(F)C(F)(F)F)nn1-c1cc(SCC(F)(F)F)c(C)cc1F (stereo not drawn) [1-186, 1-{2-fluoro-4-methyl-5-(2,2,2-trifluoroethylthio)phenyl}-3-(1,1,2,3,3,3-hexafluoropropoxy)-5-methylaminopyrazole]
≥ 90%: mortality at 500 ppm [1] | mortality at 500 ppm ([2]; in Brassica oleracea) | mortality at 500 ppm [3] | pest or weed control at 500 ppm [4, 6]

Cc1cc(F)c(-n2nc(OC(F)(F)C(F)C(F)(F)F)cc2Cl)cc1[S+]([O-])CC(F)(F)F (stereo not drawn) [1-254, 5-chloro 1-{2-fluoro-4-methyl-5-(2,2,2-trifluoroethylsulfinyl)phenyl}-3-(1,1,2,3,3,3-hexafluoropropoxy)pyrazole]
≥ 90%: mortality at 500 ppm [1] | mortality at 500 ppm [3] | pest or weed control at 500 ppm [4, 6]

CC(=O)Nc1cc(OC(F)(F)C(F)(F)C(F)(F)F)nn1-c1cc([S+]([O-])CC(F)(F)F)c(C)cc1F (stereo not drawn) [1-268, 5-acetylamino-1-{2-fluoro-4-methyl-5-(2,2,2-trifluoroethylsulfinyl)phenyl}-3-(1,1,2,2,3,3,3-heptafluoropropoxy)pyrazole]
≥ 90%: mortality at 500 ppm [2, 7] | mortality at 500 ppm [5, 8] | pest or weed control at 500 ppm [4]

C#CCNc1cc(OC(F)(F)C(F)OC(F)(F)C(F)(F)C(F)(F)F)nn1-c1cc([S+]([O-])CC(F)(F)F)c(C)cc1F (stereo not drawn) [1-358, 1-{2-fluoro-4-methyl-5-(2,2,2-trifluoroethylsulfinyl)phenyl}-5-(2-propynylamino)-3-{1,1,2-trifluoro-2-(heptafluoropropoxy)ethoxy}pyrazole]
≥ 90%: mortality at 500 ppm [2, 7] | mortality at 500 ppm [5, 8]

CC(=O)Nc1cc(OC(F)(F)C(F)OC(F)(F)C(F)(F)C(F)(F)F)nn1-c1cc(SCC(F)(F)F)c(C)cc1F (stereo not drawn) [1-370, 5-acetylamino-1-{2-fluoro-4-methyl-5-(2,2,2-trifluoroethylthio)phenyl}-3-{1,1,2-trifluoro-2-(heptafluoropropoxy)ethoxy}pyrazole]
≥ 90%: mortality at 500 ppm [2, 7] | mortality at 500 ppm [5, 8] | pest or weed control at 500 ppm [4]

CC(=O)Nc1cc(OC(F)(F)C(F)OC(F)(F)C(F)(F)C(F)(F)F)nn1-c1cc([S+]([O-])CC(F)(F)F)c(C)cc1F (stereo not drawn) [1-371, 5-acetylamino-1-{2-fluoro-4-methyl-5-(2,2,2-trifluoroethylsulfinyl)phenyl}-3-{1,1,2-trifluoro-2-(heptafluoropropoxy)ethoxy}pyrazole]
≥ 90%: mortality at 500 ppm [2, 7] | mortality at 500 ppm [5, 8] | pest or weed control at 500 ppm [4]

CC(=O)Nc1cc(OCC(F)(F)OC(F)(F)C(F)(F)OC(F)(F)F)nn1-c1cc(SCC(F)(F)F)c(C)cc1F [1-374, 5-acetylamino-3-[2,2-difluoro-2-{2-trifluoromethoxy-(1,1,2,2-tetrafluoroethoxy)}ethoxy]-1-{2-fluoro-4-methyl-5-(2,2,2-trifluoroethylthio)phenyl}pyrazole]
≥ 90%: mortality at 500 ppm ([2]; in Brassica oleracea) | mortality at 500 ppm ([5]; in Brassica oleracea) | pest or weed control at 500 ppm [4, 6]

CC(=O)Nc1cc(OCC(F)(F)OC(F)(F)C(F)(F)OC(F)(F)F)nn1-c1cc([S+]([O-])CC(F)(F)F)c(C)cc1F (stereo not drawn) [1-375, 5-acetylamino-3-[2,2-difluoro-2-{2-trifluoromethoxy-(1,1,2,2-tetrafluoroethoxy)}ethoxy]-1-{2-fluoro-4-methyl-5-(2,2,2-trifluoroethylsulfinyl)phenyl}pyrazole]
≥ 90%: mortality at 500 ppm ([2]; in Brassica oleracea) | mortality at 500 ppm ([5]; in Brassica oleracea) | pest or weed control at 500 ppm [4, 6]

CC(=O)Nc1cc(OC(F)(F)C(F)(F)C(F)(F)C(F)(F)C(F)(F)F)nn1-c1cc(SCC(F)(F)F)c(C)cc1F [1-488, 5-acetylamino-1-{2-fluoro-4-methyl-5-(2,2,2-trifluoroethylthio)phenyl}-3-(1,1,2,2,3,3,4,4,5,5,5-undecafluoropentyloxy)pyrazole]
≥ 90%: mortality at 500 ppm [2, 7] | mortality at 500 ppm [5, 8]

Cc1cc(F)c(-n2nc(OC(F)(F)C(F)OC(F)(F)F)cc2C#N)cc1SCC(F)(F)F (stereo not drawn) [1-668, 5-cyano-1-{2-fluoro-4-methyl-5-(2,2,2-trifluoroethylthio)phenyl}-3-{1,1,2-trifluoro-2-(trifluoromethoxy)ethoxy}pyrazole]
≥ 90%: mortality at 500 ppm [1] | mortality at 500 ppm ([2]; in Brassica oleracea) | mortality at 500 ppm [3] | pest or weed control at 500 ppm [4, 6]

COc1cc(OC(F)(F)C(F)OC(F)(F)F)nn1-c1cc(SCC(F)(F)F)c(C)cc1F (stereo not drawn) [1-794, 1-{2-fluoro-4-methyl-5-(2,2,2-trifluoroethylthio)phenyl}-5-methoxy-3-{1,1,2-trifluoro-2-(trifluoromethoxy)ethoxy}pyrazole]
≥ 90%: mortality at 500 ppm [1] | mortality at 500 ppm ([2]; in Brassica oleracea) | mortality at 500 ppm [3] | pest or weed control at 500 ppm [4, 6]

Cc1cc(F)c(-n2nc(OC(F)(F)C(F)OC(F)(F)F)cc2C(F)F)cc1SCC(F)(F)F (stereo not drawn) [1-1531, 5-difluoromethyl-1-{2-fluoro-4-methyl-5-(2,2,2-trifluoroethylthio)phenyl}-3-{1,1,2-trifluoro-2-(trifluoromethoxy)ethoxy}pyrazole]
≥ 90%: mortality at 500 ppm [1] | mortality at 500 ppm ([2]; in Brassica oleracea) | mortality at 500 ppm [3] | pest or weed control at 500 ppm [4, 6]

Cc1cc(F)c(-n2nc(OC(F)(F)C(F)OC(F)(F)F)cc2CF)cc1SCC(F)(F)F (stereo not drawn) [1-1579, 1-{2-fluoro-4-methyl-5-(2,2,2-trifluoroethylthio)phenyl}-5-fluoromethyl-3-{1,1,2-trifluoro-2-(trifluoromethoxy)ethoxy}pyrazole]
≥ 90%: mortality at 500 ppm [1] | mortality at 500 ppm ([2]; in Brassica oleracea) | mortality at 500 ppm [3] | pest or weed control at 500 ppm [4, 6]

Cc1cc(F)c(-n2nc(OC(F)(F)C(F)OC(F)(F)F)cc2CF)cc1[S+]([O-])CC(F)(F)F (stereo not drawn) [1-1580, 1-{2-fluoro-4-methyl-5-(2,2,2-trifluoroethylsulfinyl)phenyl}-5-fluoromethyl-3-{1,1,2-trifluoro-2-(trifluoromethoxy)ethoxy}pyrazole]
≥ 90%: mortality at 500 ppm [1] | mortality at 500 ppm [3] | pest or weed control at 500 ppm [4, 6]
